Data taken from patent US20250041194A1, “COMPOSITION COMPRISING GALACTINOL AND USE THEREOF” (Clariant International Ltd, priority 2021, published 2025).

Key:
NHDF = assay: Cell protection against UVA irradiation, bright-field cell morphology observation; assay type: cell-based, human; conditions: UVA 10 J/cm^2, curative, observed after 24 hours, data not shown
Experimental: (§1) In the following studies, the capabilities of Gal and C-Gal to protect skin cells (NHEK and NHDF) against various stress agents such as UV irradiations (UVB and UVA), or environmental factors (humidity and temperature) were assessed.
The same experiments as described above were repeated by using UVA irradiation on NHDF in the following condition: • “Curative” condition: Gal or C-Gal was applied after UVA irradiation (10 J/cm^2), and the morphology of the cells were observed after 24 hours.

NHEK [1] = assay: Cell protection against UVB irradiation, bright-field cell morphology observation; assay type: cell-based, human; conditions: UVB 30 mJ/cm^2, preventive/curative/combined, observed after 24 hours, data not shown
Experimental: as §1
Briefly, using a bright-field imaging microscope, it was studied the effect of the UVB irradiation on NHEK's morphology in various experimental conditions in presence or not of Gal and C-Gal: • “Preventive” condition: Gal or C-Gal was applied on NHEK during 24 hours before UVB irradiation (30 mJ/cm^2), and the morphology of the cells was observed after 24 hours, • “Curative” condition: Gal or C-Gal was applied after UVB irradiation, and the morphology of the cells was observed after 24 hours, • Combined condition “preventive and curative”: Gal or C-Gal was applied before and after UVB irradiation and the morphology of the cells was observed after 24 hours.

HSP27 = HSP27 protein expression by immunostaining; assay type: cell-based, human; conditions: NHDF, 24 h treatment, basal (non stressed) condition; FIG. 5
Experimental: NHDF were treated with Gal or C-Gal for 24 h (treated cells). […] Pictures were realized with a Nikon microscope (Eclipse Ti2). The quantification of HSP27 was measured by image analysis of fluorescence intensity per cell using Image J software. The statistical analysis (Dunnett) was realized with Minitab software (*p<0.05 compared to control). Results were obtained by performing three independent assays.

[2] = test system: normal human dermal fibroblasts (NHDF); assay: Transcriptomic study, mRNA expression by RT-qPCR (Taqman); assay type: cell-based; conditions: 24 h treatment, vs untreated
Experimental: The mRNA expression was quantified after 24 h of NHDF treatment with both Gal and C-Gal.
mRNA extraction was realized according to the provider recommendations (Qiagen). Briefly, lysis buffer RLT-Plus was added on the cell pellet and the homogenous lysate was transferred in a column. The eluate was mixed with one volume 70° ethanol and was transferred in a pink <<RNeasy>> column. The column was washed with buffer. Elution was realized with RNase-free water and the RNA quantitation was done by D.O. 260 nm, 280 nm, 320 nm measurements (Biotek, Cytation3 & Take3 Plate) with “Nucleic Acid Quantification” software application. mRNA quality was checked using a fragment analyser (Advanced Analytical). Then, mRNA reverse transcription allowing the obtention of cDNA templates was performed on a thermal cycler (Bio-Rad). cDNA templates were used to perform the qPCR. For the transcriptomic study, it was used Biorad predesigned plates for ECM components, antioxidants genes, skin homeostasis. Then, the data generated allowed the automatic calculation using Bio-Rad CFX manager of mRNA expression fold change and p values in comparison to untreated condition.
All data are statistically significant compared to control condition (p value <0.05).

NHEK [3] = assay: Cell protection against environmental stress (heat, hydric), bright-field cell morphology observation; assay type: cell-based, human; conditions: heat stress 37 to 44° C. 30 min, hydric stress 90% to 45% relative humidity, or both, data not shown
Experimental: as §1
Finally, the effect of environmental stress on cell morphology was studied in NHEK treated with and without Gal or C-Gal (using a bright-field imaging microscope). The environmental stress applied were either a heat stress (increase in temperature from 37° C. to 44° C. during 30 min), or an hydric stress “modulation of relative humidity from 90% to 45%” or a combination of both stresses “heat plus hydric stresses”.

OC[C@H]1O[C@H](O[C@@H]2[C@@H](O)[C@H](O)[C@@H](O)[C@H](O)[C@@H]2O)[C@H](O)[C@@H](O)[C@H]1O [Gal, 3-O-α-D-galactopyranosyl-D-myo-inositol]
cell morphology (NHDF): quite regular and expected cells morphology
cell number vs stress condition alone (NHDF): more cells are present
cell morphology (NHEK [1]): quite regular and expected cells morphology
cell number vs stress condition alone (NHEK [1]): more cells are present
HSP27 expression (fluorescence intensity per cell) (HSP27): clear stimulation
ECM genes and proteins expressions (COL5A1, ELN, SDC4, VCAN, LAMC2, LUM, ITGA1) ([2]; p value <0.05, FIG. 2): modulation
antioxidant genes expression (NQO1, HMOX1, GPX1, G6PD) ([2]; p value <0.05, FIG. 3): modulated
growth factors gene expression (TGF Beta 1 and NGF) ([2]; p value <0.05, FIG. 4): upregulation
heat shock proteins gene expression (HSPA1A and HSP90AA) ([2]; p value <0.05, FIG. 4): upregulation
mRNA expressions of PCNA, MKi67 and GADD45A (DNA repair and cell proliferation) ([2]; p value <0.05, FIG. 4): upregulation
cell morphology (NHEK [3]): quite regular and expected cells morphology
